Where two headings read alike, the source gives them in different places.
Tests used:
RORγ = target: T1, RORγ (UniProt P51449); experiment: RORγ Gal4 Reporter Gene Assay in 293T cells (firefly and renilla luciferase); type: cell-based, human
T1 sequence (P51449 1-518): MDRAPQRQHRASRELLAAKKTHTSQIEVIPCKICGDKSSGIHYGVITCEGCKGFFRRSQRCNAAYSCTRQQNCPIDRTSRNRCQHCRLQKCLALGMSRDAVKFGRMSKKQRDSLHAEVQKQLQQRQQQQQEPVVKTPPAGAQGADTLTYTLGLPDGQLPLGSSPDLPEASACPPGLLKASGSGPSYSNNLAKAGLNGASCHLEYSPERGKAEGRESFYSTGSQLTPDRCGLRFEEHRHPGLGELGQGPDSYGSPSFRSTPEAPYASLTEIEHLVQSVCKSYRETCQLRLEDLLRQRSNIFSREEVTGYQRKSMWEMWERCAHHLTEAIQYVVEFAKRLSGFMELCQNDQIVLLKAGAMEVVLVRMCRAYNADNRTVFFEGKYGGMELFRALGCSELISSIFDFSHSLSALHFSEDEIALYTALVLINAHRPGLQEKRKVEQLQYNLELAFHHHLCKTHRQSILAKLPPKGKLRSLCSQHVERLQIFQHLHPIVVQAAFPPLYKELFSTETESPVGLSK

[1] = target: T2, RORγ ligand binding domain (LBD) (Homo sapiens, UniProt P51449); experiment: TR-FRET Activity Assay (ligand sensing, RORγ-LBD / coactivator peptide interaction, LANCE); type: biochemical
T2 construct: made in house; host or cells: E. coli BL-21 (BL3), vector pDEST15
T2 sequence (P51449 269-508 limits assumed): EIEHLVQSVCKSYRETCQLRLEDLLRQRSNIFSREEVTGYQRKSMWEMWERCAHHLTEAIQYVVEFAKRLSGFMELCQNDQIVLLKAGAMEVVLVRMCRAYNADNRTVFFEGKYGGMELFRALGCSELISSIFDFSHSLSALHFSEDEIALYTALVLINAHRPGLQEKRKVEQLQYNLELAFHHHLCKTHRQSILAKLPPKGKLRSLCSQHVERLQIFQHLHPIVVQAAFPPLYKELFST

[2] = second value of the cell, Gal4 reporter gene assay in 293T cells, firefly luciferase
[3] = third value of the cell, Gal4 reporter gene assay in 293T cells, renilla normalised luciferase
[4] = first value of the cell FRET/FF/REN, TR-FRET activity assay, read-out: pIC50 (FRET) (converted)

Row | Structure (SMILES) | pIC50 (FF) (RORγ) | pIC50 (REN) (RORγ) | IC50 [1] | pIC50 (FF) (RORγ; [2]) | pIC50 (REN) (RORγ; [3]) | IC50 [1, 4]
1 | Cc1c(C(=O)NCC(C)(C)NS(C)(=O)=O)cc(-c2cc(C(C)(C)C)cc(C(C)(C)C)c2)n1CC1CCCCC1 [1/4] | 6.5/7.5/7.6 | 6.5/7.5/7.6 | 316 nM |  |  | 
2 | Cc1c(C(=O)NC2CCOCC2)cc(-c2ccc(S(=O)(=O)NC(C)(C)C)c(Cl)c2Cl)n1CC1CCCCC1 [17/276] | 6.8/7.9/8.0 | 6.8/7.9/8.0 | 158 nM |  |  | 
3 | CCNC(=O)c1cc(-c2ccc(S(=O)(=O)NC(C)(C)C)c(C(C)(C)C)c2)n(CC2CCCCC2)c1C [17/98] |  |  |  | 6.8 | 6.9 | 316 nM
4 | Cc1c(C(=O)NC2CCOCC2)cc(-c2ccc(S(=O)(=O)NCC(F)(F)F)c(C(C)(C)C)c2)n1CC1CCCCC1 [17/101] |  |  |  | 7.7 | 7.7 | 794 nM
5 | Cc1noc2ccc(-c3cc(C(N)=O)c(C)n3CC3CCCCC3)cc12 [1/49] |  |  |  | 6.2 | 6.6 | 31600 nM
6 | Cc1c(C(=O)NC2CCOCC2)cc(-c2ccc(S(=O)(=O)NC(C)(C)C)c(C(F)(F)F)n2)n1CC1CCCCC1 [17/245] |  |  |  | 5.7 | 5.7 | > 20000 nM
7 | CNC(=O)C(C)(C)CNC(=O)c1cc(-c2ccc(S(=O)(=O)NC(C)(C)C)c(C(F)(F)F)c2)n(CC2CCCCC2)c1C [17/204] |  |  |  | 6.7 | 6.8 | 794 nM
8 | Cc1c(C(N)=O)cc(-c2cccc(C(O)(C(F)(F)F)C(F)(F)F)c2)n1CC1CCCCC1 [1/47] |  |  |  | < 4.7 | < 4.7 | 3980 nM
9 | Cc1c(C(N)=O)cc(-c2cc(C(C)(C)C)cc(C(C)(C)C)c2)n1S(=O)(=O)N1CCCCC1 [7/8] |  |  |  | 6.0 | 6.2 | 501 nM
10 | CC(C)(C)NS(=O)(=O)c1ccc(-c2cc(C(=O)NCCC(C)(C)C(=O)O)c(Cl)n2CC2CCCCC2)cc1C(F)(F)F [Example 22, 4-(5-(4-(N-(tert-Butyl)sulfamoyl)-3-(trifluoromethyl)phenyl)-2-chloro-1-(cyclohexylmethyl)-1H-pyrrole-3-carboxamido)-2,2-dimethylbutanoic acid] |  |  |  | 7.5 | 7.6 | 398 nM
11 | Cc1c(C(=O)NS(C)(=O)=O)cc(-c2cc(C(C)(C)C)cc(C(C)(C)C)c2)n1CC1CCCCC1 [1/51] |  |  |  | 5.9 | 6.1 | 2510 nM
12 | Cc1c(C(=O)NC[C@@H](C)O)cc(-c2cc(C(C)(C)C)cc(C(C)(C)C)c2)n1CC1CCCCC1 [1/59] |  |  |  | 6.3 | 6.3 | 631 nM
13 | CC(C)(C)NS(=O)(=O)c1ccc(-c2cc(C(=O)N[C@H]3C[C@H](C(=O)O)C3)c(Cl)n2CC2CCCCC2)c2ccccc12 [22/2] |  |  |  | 8.1 | 8.0 | 398 nM
14 | Cc1c(C(=O)NC2CCOCC2)cc(-c2ccc(S(=O)(=O)NC(C)(C)C)c(Br)c2)n1CC1CCCCC1 [17/157] |  |  |  | 7.0 | 7.1 | 398 nM
15 | Cc1c(C(=O)N[C@H]2C[C@H](C(=O)O)C2)cc(-c2cc(C(C)(C)O)cc(C(F)(F)F)c2)n1CC1CCCCC1 [17/307] |  |  |  | 6.2 | 6.0 | 3160 nM
16 | Cc1c(C(=O)NCC(C)(C)O)cc(-c2ccc(S(=O)(=O)NC(C)(C)C)c3ccccc23)n1CC1CCCCC1 [17/264] |  |  |  | 7.9 | 7.7 | 631 nM
17 | Cc1c(C(=O)NCC(C)(C)C(N)=O)cc(-c2ccc(S(=O)(=O)NC(C)(C)C)c(C(F)F)c2)n1CC1CCCCC1 [17/128] |  |  |  | 8.0 | 8.0 | 200 nM

Row | Structure (SMILES) | pIC50 (FF) (RORγ) | pIC50 (REN) (RORγ) | IC50 [1] | pIC50 (FF) (RORγ; [2]) | pIC50 (REN) (RORγ; [3]) | IC50 [1, 4]
18 | Cc1c(C(=O)NC2(C)COC2)cc(-c2cc(C(C)(C)C)c3c(c2)C2(CCO3)CC2)n1CC1CCCCC1 [17/13] | 6.2/6.8/6.9 | 6.2/6.8/6.9 | 631 nM |  |  | 
19 | Cc1c(C(=O)NC2CCOCC2)cc(C2=NN(S(=O)(=O)c3ccccc3)C3(CCCCC3)C2)n1CC1CCCCC1 [24/1] |  |  |  | 6.3 | 6.4 | 12600 nM
20 | CCc1cc(-c2cc(C(N)=O)c(C)n2CC2CCCCC2)cc2c1OCC2(C)C [1/50] |  |  |  | 6.0 | 6.1 | 1580 nM
21 | Cc1c(C(=O)N[C@H]2C[C@H](C(=O)O)C2)cc(-c2cc(C(C)(C)C)nc(C(C)(C)C)c2)n1CC1CCCCC1 [17/262] | 6.2/7.6/7.8 | 6.2/7.6/7.8 | 631 nM |  |  | 
22 | Cc1c(C(=O)NC2CCOCC2)cc(-c2ccc(S(=O)(=O)N[C@H](C)C(F)(F)F)c(C(F)(F)F)c2)n1CC1CCCCC1 [17/142] |  |  |  | 7.4 | 7.6 | 398 nM
23 | Cc1c(C(=O)NCC(C)(C)NC(=O)CCO)cc(-c2cc(C(C)(C)C)c3c(c2)C2(CCO3)CC2)n1CC1CCCCC1 [17/31] | 6.0/7.3/7.3 | 6.0/7.3/7.3 | 1000 nM |  |  | 
24 | Cc1c(C(=O)NC2CCOCC2)cc(-c2cc(C(C)(C)O)cc3ccccc23)n1CC1CCCCC1 [17/185] | 6.3/6.4/6.2 | 6.3/6.4/6.2 | 501 nM |  |  | 
25 | Cc1c(C(=O)NCC(O)(C(F)(F)F)C(F)(F)F)cc(-c2cc(C(C)(C)C)cc(C(C)(C)C)c2)n1CC1CCCCC1 [1/113] |  |  |  | < 4.7 | < 4.7 | 3980 nM
26 | Cc1c(C(=O)NC2COC2)cc(-c2cnc(NCC(C)(C)C)c(C(F)(F)F)c2)n1CC1CCCCC1 [9/12] |  |  |  | 6.3 | 6.5 | 1580 nM
27 | Cc1c(C(=O)N[C@H]2C[C@@H](C(=O)O)C2)cc(-c2cc(C(C)(C)C)c3c(c2)C2(CCO3)CC2)n1CC1CCCCC1 [17/56] |  |  |  | 6.4 | 6.4 | 12600 nM
28 | Cc1c(C(=O)NC2CCOCC2)cc(-c2ccc(-c3ccnn3C(C)C)c(C(F)(F)F)c2)n1CC1CCCCC1 [17/249] |  |  |  | 6.6 | 6.7 | 501 nM
29 | Cc1c(C(=O)NCC(C)(C)O)cc(-c2cc(C(=O)NC(C)(C)C)cc(C(C)(C)C)c2)n1CC1CCCCC1 [15/8] | 6.0/7.3/7.4 | 6.0/7.3/7.4 | 1000 nM |  |  | 
30 | Cc1c(S(=O)(=O)NC(C)(C)C)ccc(-c2cc(C(=O)NCC(C)(C)O)c(C)n2CC2CCCCC2)c1Cl [17/291] |  |  |  | 7.6 | 7.7 | 398 nM
31 | CC(C)(C)NS(=O)(=O)c1ccc(-c2cc(C(=O)N[C@H]3C[C@H](C(=O)O)C3)c(F)n2CC2CCCCC2)c2ccccc12 [20/8] |  |  |  | 7.0 | 7.0 | 1000 nM
32 | Cc1c(C(=O)NCCC(C)(C)C(=O)O)cc(-c2ccc(S(=O)(=O)NC3(C#N)CC3)c(C(F)(F)F)c2)n1CC1CCCCC1 [17/361] |  |  |  | 6.4 | 6.4 | 2000 nM
33 | CC(=O)c1cc(-c2cc(C(=O)NC3CCOCC3)c(C)n2CC2CCCCC2)cc(C(C)(C)C)c1 [17/103] | 6.1/6.7/6.8 | 6.1/6.7/6.8 | 794 nM |  |  | 
34 | Cc1c(C(=O)N2CC3(COCC(=O)N3)C2)cc(-c2ccc(S(=O)(=O)NC(C)(C)C)c(C(F)(F)F)c2)n1CC1CCCCC1 [17/293] |  |  |  | 6.6 | 6.7 | 1260 nM

— patent US9815851B2, “Pyrrolo carboxamides as modulators of orphan nuclear receptor RAR-related orphan receptor-gamma (RORγ, NR1F3) activity and for the treatment of chronic inflammatory and autoimmune diseases” (PHENEX PHARMACEUTICALS AG, priority 2011, dated 2017)
